Reference: patent US20230116196A1, “METHOD OF TREATING CNS DISORDERS WITH NEU[…] GABAERGIC COMPOUNDS” (priority 2017, published 2023)

Experiments:
GT1-7 cells [1] = assay: Patch-clamp of GABA-induced currents (IGABA) in GT1-7 cells; assay type: cell-based; details: 100 nM in electrolyte, GABA EC20, 20 min time course
Method: Patch-clamp recordings were made from GT1-7 cells. The magnitude of the GABA-induced currents (IGABA) at EC20 agonists concentration were then measured, in the presence of control electrolyte or that supplemented with 100 nM ALLO, or 100 nM ORG OD 02-0 over a time course of 20 min.

[2] = system: GABAA receptor β3 subunit S408/9; assay: Immunoblot of β3 S408/9 phosphorylation in hippocampal slices; assay type: cell-based, mouse; details: 20 min exposure (100 nM in FIG. 6)
Method: Asterisks represent a significant difference from control (ALLO: p<0.01, Student's t-test, n=10 slices, from 10 mice; SGE-516: p<0.05, Student's t-test, n=4 slices, from 4 mice). […] Asterisks represent a significant difference from control (ALLO: p<0.05, Student's t-test, n=8 slices; SGE-516: p<0.05, Student's t-test, n=4 slices).
Hippocampi were dissected out of acute slices from 8 to 12 week old C57/Bl6 mice and lysed with […] including: 20 mM Tris-HCl, 150 mM NaCl, 5 mM EDTA, 10 mM NaF, 2 mM Na3VO4, 10 mM pyrophosphate, 0.1% SDS and 1% Triton after drug treatment. The β3 subunit was isolated using immunoprecipitation with β3 antibodies, after correction for protein content and the specific activity of labeling. Results were attained by SDS/PAGE followed by autoradiography (Abramian et al., 2010). For biotinylation experiments hippocampi were dissected out of acute slices from 8 to 12 week old C57/Bl6 mice and incubated in artificial cerebrospinal fluid (ACSF) described above at 30° C. for 1 h for recovery before experimentation. Slices were then placed on ice and incubated for 30 min with 1 mg/mL NHS-SS-biotin (Pierce). Excess biotin was removed by a 50 mM glycine quenching buffer, followed by washing of slices three times in ice-cold ACSF. The tissue was snap frozen on dry ice for 5 min, thawed at 4° C. and lysed. The lysates were solubilized with 2% Triton at 4° C. on a rotating wheel for 1 h. The insoluble material was removed by centrifugation, and 350-500 μg of protein lysate were incubated with NeutrAvidin beads (Pierce) for 18-24 h at 4° C. Bound material was eluted with sample buffer and subjected to SDS/PAGE and then immunoblotted with the indicated antibodies. Blots were then quantified using the CCD-based ChemiDoc XRS ? system. Antibodies against the β3 subunit and the phospho-β3 antibody were generated and verified by the laboratory of S.J.M. (Vien et al., 2015).
(§1) Treatment of hippocampal slices with SGE-516 increased the phosphorylation of S408/9 measured using pS408/9 antibodies. To produce antibodies specific for phosphorylated S443, rabbits were injected with a synthetic peptide corresponding to residues […] of the murine α4 subunit in which the serine residue corresponding to S443 was chemically phosphorylated; […]. Hippocampal slices were treated with vehicle (Con), or SGE-516 for 20 min. Slices were immunoblotted with pS408/9, β3, or actin antibodies. The ratio of pS408/9/β3 immunoreactivity was then normalized to control slices (100%=the line).
Hippocampal slices were treated with 100 nM ALLO or P4 (progesterone), and S408/9 phosphorylation was then determined as detailed above, n=4 slices (FIG. 18D). Hippocampal slices were treated with 100 nM ORG (FIG. 18E). S408/9 phosphorylation was examined using immunoblotting. […]

GT1-7 cells [3] = assay: Immunoblot of β3 S408/9 phosphorylation in GT1-7 cells; assay type: cell-based; details: 100 nM, 15 min
Method: GT1-7 cells that co-express mPRα and GABAARs were used to measure the level of phosphorylation at S408/9 position of β3 subunit. […] Expression of mPRα was confirmed using western blotting.
GT1-7 cells were treated with 100 nM AllO or P4 for 15 min and immunoblotted with antibodies specifically recognizing β3, actin, and […] β3 subunit (pS408/9). The ratio of pS408/9 β3 subunit immunoreactivity were then normalized to levels seen in vehicle treated to controls, n=6.

[4] = system: GABAA receptor α4 subunit S443; assay: Immunoblot of α4 S443 phosphorylation in hippocampal slices; assay type: cell-based, mouse; details: 100 SGE-516 for 5 min
Method: as §1
Affinity purified pS443 was used to immunoblot varying concentrations of the immunizing phosphor-peptide (PP). pS443 was used to immunoblot extracts of hippocampal slices treated without preadsorption (0), preadsorbed with the dephosphorylated (DP), or phosphorylated antigen (PP). […] Moreover, the detection of this band was blocked by the phospho—but not the dephospho-antigen (FIG. 7B).
Hippocampal slices were treated with vehicle (Con) or 100 SGE-516 for 5 min and then immunoblotted with pS443 and α4 antibodies as indicated. pS443 immunoreactivity in hippocampal slices was increased by exposure to SGE-516, while total α4 levels were unaffected (FIG. 7C).

[5] = system: GABAA receptor α4 S443 and β3 S408/9; assay: Phosphorylation of S443 and S408/9 in brains of mice after IP injection; assay type: in vivo, mouse; details: 5 mg/kg IP, 30 min after treatment
Method: C57/B16 mice injected with SGE-516 (5 mg/kg IP), or vehicle. 30 min after the treatment mice were sacrificed by microwave irradiation. SDS-soluble hippocampal extracts were then immunoblotted with pS443, α4, pS408/9, or β3 subunit antibodies.

[6] = system: GABAARs containing the α4 and β subunits, S408/9A mice; assay: Biotinylation: cell surface levels of GABAARs in hippocampal slices from S408/9A mice; assay type: cell-based, mouse; details: 100 nM, 20 min
Method: Consistent with the examples above, hippocampal slices from WT and S408/9A mice were treated for 20 min with 100 nM SGE-516 or vehicle (Con) and subjected to biotinylation followed by immunoblotting with β and α4 subunit antibodies. The ratio of surface/total (S/T) immunoreactivity was then normalized to levels seen in control (100%).

DGGCs from S408/9A mice = assay: Sustained effect on tonic current in DGGCs from S408/9A mice; assay type: cell-based, mouse; details: 100 nM, washout

## CC(=O)[C@H]1CC[C@H]2[C@@H]3CC[C@H]4C[C@H](O)CC[C@]4(C)[C@H]3CC[C@]12C [ALLO, Allopregnanolone]
GT1-7 cells [1]
  GABA-evoked currents recorded from GT1-7 cells: sustained increases
[2]
  β3 S408/409 phosphorylation in hippocampal slices: increases
GT1-7 cells [3]
  S408/9 phosphorylation in GT1-7 cells: increase

## C[C@@]1(O)CC[C@@]2(C)[C@H](CC[C@@H]3[C@@H]2CC[C@]2(C)[C@@H](C(=O)Cn4nccn4)CC[C@@H]32)C1 [SGE-516]
[4]
  pS443 immunoreactivity in hippocampal slices: increased
  total α4 levels: unaffected
[2]
  β3 S408/409 phosphorylation in hippocampal slices: increases
[5]
  phosphorylation of S443 and S408/9 in the brains of mice: increased
[6]
  increase of plasma membrane levels of GABAARs in slices from S408/9A mice: not seen
DGGCs from S408/9A mice
  tonic current in S408/9A mice: did not modify
